Tests used:
JAK1 = biological target: T1, JAK1 (Homo sapiens, UniProt P23458); experiment: Biochemical JAK1 kinase assay (LanthaScreen); settings: for Ki: read-out: JAK 1 (pKi) (converted)
T1 construct: GST; purchased Life Technologies
Method in brief: (§1)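 GST-tagged JAK enzyme and GFP-STAT1 peptide preincubated with compound 1 h, then ATP added; 1 h kinase reaction at ambient temperature, pH 7.5 HEPES/MgCl2 buffer, 1% DMSO. Tb-anti-pSTAT1 (pTyr701) TR-FRET, 520/495 nm ratio; IC50 from 4-parameter fit, converted to pKi via Cheng-Prusoff.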

JAK2 = biological target: T2, JAK2 (Homo sapiens, UniProt O60674); experiment: Biochemical JAK2 kinase assay (LanthaScreen); settings: for Ki: read-out: JAK 2 (pKi) (converted)
T2 construct: GST; purchased Life Technologies
T2 sequence (O60674 whole entry): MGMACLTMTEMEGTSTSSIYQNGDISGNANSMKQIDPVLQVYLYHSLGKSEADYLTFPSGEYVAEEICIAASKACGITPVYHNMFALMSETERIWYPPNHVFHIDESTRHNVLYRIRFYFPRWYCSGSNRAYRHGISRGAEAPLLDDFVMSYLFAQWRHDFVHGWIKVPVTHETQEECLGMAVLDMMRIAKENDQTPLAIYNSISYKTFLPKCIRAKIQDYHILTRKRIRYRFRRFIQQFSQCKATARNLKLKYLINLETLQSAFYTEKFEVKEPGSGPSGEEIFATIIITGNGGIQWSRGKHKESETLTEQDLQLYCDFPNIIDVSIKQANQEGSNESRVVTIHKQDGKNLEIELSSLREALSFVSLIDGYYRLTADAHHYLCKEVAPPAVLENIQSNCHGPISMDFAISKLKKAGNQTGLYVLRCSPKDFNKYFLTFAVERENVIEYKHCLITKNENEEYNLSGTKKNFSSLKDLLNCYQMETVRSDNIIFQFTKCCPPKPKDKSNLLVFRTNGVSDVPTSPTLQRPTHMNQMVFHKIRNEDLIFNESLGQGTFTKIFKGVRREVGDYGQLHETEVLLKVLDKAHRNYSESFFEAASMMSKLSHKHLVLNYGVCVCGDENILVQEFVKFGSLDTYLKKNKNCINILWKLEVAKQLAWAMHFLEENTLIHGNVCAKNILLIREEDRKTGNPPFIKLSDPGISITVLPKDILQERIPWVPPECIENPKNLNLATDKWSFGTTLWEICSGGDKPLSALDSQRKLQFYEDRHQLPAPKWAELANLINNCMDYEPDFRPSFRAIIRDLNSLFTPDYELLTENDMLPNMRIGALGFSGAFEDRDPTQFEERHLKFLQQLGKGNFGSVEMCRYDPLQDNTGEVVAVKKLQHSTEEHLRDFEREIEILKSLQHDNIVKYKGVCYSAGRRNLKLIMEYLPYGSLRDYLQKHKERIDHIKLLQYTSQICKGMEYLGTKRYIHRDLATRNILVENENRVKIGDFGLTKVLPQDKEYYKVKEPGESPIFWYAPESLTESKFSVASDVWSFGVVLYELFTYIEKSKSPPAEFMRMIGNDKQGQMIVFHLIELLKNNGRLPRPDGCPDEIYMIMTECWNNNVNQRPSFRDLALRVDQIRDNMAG
Method in brief: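 GST-tagged recombinant JAK2 pre-incubated 1 h at ambient temperature with compound and GFP-STAT1 peptide in HEPES pH 7.5/MgCl2 buffer, then ATP added for a 1 h reaction with 1% DMSO. TR-FRET read after EDTA and Tb-anti-pSTAT1 (pTyr701) addition; IC50 from 4-parameter fit, converted to pKi by Cheng-Prusoff.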

Tyk2 = biological target: T3, Tyk2 (Homo sapiens, UniProt P29597); experiment: Biochemical Tyk2 kinase assay (LanthaScreen); settings: for Ki: read-out: Tyk 2 (pKi) (converted)
T3 construct: GST; purchased Life Technologies
T3 sequence (P29597 whole entry): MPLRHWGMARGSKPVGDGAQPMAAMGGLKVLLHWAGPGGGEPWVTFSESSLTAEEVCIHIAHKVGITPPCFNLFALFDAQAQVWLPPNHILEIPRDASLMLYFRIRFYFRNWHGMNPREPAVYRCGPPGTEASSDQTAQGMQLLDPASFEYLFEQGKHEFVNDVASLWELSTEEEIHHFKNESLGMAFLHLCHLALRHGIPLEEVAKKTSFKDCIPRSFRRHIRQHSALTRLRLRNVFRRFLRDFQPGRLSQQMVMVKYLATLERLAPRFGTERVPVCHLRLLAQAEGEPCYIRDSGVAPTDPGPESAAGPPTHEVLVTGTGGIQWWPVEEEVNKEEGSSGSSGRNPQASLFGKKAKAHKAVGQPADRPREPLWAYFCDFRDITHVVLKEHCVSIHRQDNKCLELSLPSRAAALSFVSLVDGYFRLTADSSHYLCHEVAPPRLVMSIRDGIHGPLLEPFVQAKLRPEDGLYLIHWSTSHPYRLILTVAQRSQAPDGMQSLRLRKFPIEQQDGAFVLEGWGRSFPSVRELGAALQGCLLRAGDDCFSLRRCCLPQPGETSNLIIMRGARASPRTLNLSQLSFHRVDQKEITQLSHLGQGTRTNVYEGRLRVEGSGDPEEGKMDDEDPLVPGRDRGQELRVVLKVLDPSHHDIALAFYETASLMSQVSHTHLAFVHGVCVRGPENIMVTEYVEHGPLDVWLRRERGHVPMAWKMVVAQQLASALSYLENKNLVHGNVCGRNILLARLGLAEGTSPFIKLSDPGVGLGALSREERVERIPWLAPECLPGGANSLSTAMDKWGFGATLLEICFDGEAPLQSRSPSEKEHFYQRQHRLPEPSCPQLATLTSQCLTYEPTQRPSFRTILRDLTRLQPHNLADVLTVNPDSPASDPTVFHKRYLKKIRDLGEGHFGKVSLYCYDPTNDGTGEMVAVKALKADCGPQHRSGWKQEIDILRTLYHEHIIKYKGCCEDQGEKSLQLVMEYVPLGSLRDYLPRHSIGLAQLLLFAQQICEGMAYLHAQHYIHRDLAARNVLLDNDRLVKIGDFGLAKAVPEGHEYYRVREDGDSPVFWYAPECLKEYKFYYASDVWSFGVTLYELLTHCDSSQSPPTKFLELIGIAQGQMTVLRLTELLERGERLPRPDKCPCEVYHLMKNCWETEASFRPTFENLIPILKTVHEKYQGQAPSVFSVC
Method in brief: as §1

[1] = tested on: IL-2 stimulated pSTAT5 in Tall-1 T cells; experiment: Cellular JAK3 potency assay: inhibition of IL-2 stimulated pSTAT5 in Tall-1 T cells; format: cell-based, human; settings: for IC50: Homo sapiens, TALL-1, IL-2 stimulated pSTAT5 in Tall-1 T cells, read-out: Tall-1 (pIC50) (converted)
Method in brief: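 Tall-1 human T cells (45,000/well) in phenol red-free DMEM with 10% FBS were preincubated with compound 1 h at 37 °C, then stimulated with IL-2 (final 300 ng/ml) for 30 min. Lysate pSTAT5 read by AlphaLisa; IC50 from inhibition curves, reported as pIC50 (mean±SD).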

[2] = tested on: oxazolone-induced colitis; experiment: Mouse model of oxazolone-induced colitis; format: in vivo
Method: Oxazolone-induced colitis is an experimental model that has a histological resemblance to human ulcerative colitis (Heller et al. Immunology, 2002, 17, 629-638). Adult BALB/C mice from Harlan were used in the assay. On day 1, animals were lightly anesthetized with isoflurane and the hairs between the shoulder were carefully removed before oxazolone (4%, 150 μL, 4:1 acetone:olive oil formulation) or vehicle solution was slowly applied for skin sensitization. Seven days after skin sensitization, the mice were fasted around 6 hours prior, anesthetized with ketamine/xylazine injection, and a 1 mL syringe equipped with a 3.5-F catheter, filled with oxazolone solution, was inserted carefully about 4 cm into the colon of the mouse. Following insertion, 50 μL of the oxazolone solution (0.8% in 1:1 ethanol:water formulation) was injected very slowly (over 30 sec using an injection pump) into the colon. Drug treatment (PO, QD or BID or TID) or vehicle was initiated a day prior to the oxazolone intrarectal (IR) challenge. Two-day post oxazolone intrarectal challenge, the disease was assessed by treatment-blinded experimenters for each mouse according to the criteria score: stool consistency score (0, normal; 2, loose; 4, diarrhea), gross bleeding score (0, absence; 2, blood tinged; 4, presence); Combined stool score endpoint=stool consistency score+stool blood score.
Select compounds were tested in the assay.

JAK3 = biological target: T4, JAK3 (Homo sapiens, UniProt P52333); experiment: Biochemical JAK3 kinase assay (LanthaScreen); parameters: GST; purchased Life Technologies; settings: for Ki: read-out: JAK 3 (pKi) (converted)
T4 sequence (P52333 1-1124): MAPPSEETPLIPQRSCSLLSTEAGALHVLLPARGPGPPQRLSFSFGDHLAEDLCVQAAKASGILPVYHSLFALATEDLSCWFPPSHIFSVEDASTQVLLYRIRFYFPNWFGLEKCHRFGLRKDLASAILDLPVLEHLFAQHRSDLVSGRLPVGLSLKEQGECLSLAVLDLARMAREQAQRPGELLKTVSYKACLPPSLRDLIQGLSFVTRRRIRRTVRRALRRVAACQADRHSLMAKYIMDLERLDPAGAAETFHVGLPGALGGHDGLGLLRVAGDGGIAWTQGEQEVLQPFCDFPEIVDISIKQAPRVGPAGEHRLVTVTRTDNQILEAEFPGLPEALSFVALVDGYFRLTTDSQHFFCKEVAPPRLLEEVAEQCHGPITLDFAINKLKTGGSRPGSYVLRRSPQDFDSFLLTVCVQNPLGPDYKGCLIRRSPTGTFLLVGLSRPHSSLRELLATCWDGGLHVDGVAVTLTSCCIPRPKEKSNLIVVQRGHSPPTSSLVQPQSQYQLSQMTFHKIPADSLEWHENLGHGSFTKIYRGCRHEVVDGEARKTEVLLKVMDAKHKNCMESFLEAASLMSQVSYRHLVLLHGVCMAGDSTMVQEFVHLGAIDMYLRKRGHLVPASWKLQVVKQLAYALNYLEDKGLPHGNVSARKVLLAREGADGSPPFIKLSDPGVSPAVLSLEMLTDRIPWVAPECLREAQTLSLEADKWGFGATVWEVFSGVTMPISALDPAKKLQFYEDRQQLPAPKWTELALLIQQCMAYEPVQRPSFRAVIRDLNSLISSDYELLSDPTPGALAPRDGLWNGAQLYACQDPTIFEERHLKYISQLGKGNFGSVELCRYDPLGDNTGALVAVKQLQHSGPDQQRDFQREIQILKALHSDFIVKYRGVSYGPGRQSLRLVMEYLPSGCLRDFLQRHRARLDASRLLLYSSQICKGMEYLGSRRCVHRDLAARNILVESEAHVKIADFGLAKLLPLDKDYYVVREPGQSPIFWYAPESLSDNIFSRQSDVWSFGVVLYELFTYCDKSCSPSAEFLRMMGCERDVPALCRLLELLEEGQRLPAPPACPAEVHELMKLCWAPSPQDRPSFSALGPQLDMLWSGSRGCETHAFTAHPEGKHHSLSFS
Method in brief: as §1

[3] = IL-2 stimulated pSTAT5 in Tall-1 T cells
[4] = selectivity: difference of pKi JAK3 and pKi JAK1

T1 sequence (P23458 whole entry): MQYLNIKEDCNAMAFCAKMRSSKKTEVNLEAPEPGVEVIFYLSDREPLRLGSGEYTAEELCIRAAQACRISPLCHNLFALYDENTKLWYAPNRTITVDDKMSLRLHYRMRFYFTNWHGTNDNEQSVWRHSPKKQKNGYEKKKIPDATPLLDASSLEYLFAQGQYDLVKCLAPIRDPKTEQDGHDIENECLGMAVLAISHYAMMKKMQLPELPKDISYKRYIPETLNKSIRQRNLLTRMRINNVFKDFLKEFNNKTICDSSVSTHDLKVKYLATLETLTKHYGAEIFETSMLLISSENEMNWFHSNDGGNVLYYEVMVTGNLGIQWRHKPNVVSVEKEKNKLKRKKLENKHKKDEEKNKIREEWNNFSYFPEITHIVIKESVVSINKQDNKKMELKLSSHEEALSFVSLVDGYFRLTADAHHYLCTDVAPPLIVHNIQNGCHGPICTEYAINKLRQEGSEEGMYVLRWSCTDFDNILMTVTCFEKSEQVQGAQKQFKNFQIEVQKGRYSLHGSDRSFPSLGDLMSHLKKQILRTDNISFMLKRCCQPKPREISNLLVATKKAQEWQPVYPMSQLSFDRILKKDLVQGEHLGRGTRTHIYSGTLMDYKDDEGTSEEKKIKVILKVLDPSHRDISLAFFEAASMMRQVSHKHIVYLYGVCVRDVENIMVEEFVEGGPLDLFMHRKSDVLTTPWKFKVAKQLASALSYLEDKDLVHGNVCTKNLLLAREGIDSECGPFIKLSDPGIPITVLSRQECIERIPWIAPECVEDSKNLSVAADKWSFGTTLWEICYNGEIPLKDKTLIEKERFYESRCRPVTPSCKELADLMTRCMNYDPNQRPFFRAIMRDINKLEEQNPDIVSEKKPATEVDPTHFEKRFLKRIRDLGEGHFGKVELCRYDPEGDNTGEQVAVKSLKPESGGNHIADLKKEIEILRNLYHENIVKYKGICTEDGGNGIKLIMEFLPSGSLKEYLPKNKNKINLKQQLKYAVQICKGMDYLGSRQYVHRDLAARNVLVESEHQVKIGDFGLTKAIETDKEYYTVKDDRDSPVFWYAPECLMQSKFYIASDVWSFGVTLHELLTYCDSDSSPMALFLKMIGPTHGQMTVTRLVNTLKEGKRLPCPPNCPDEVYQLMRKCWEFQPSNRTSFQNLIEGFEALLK

SMILES	JAK 1 (pKi) (JAK1)	JAK 2 (pKi) (JAK2)	Tyk 2 (pKi) (Tyk2)	Tall-1 (pIC50) [1, 3]	combined stool score endpoint as compared with vehicle treated animals ([2]; 3 mg/kg (PO, BID))	JAK 3 (pKi) (JAK3)	JAK3 (pKi)-JAK1 (pKi) (JAK3; [4])	Ki (JAK1) [µM]	Ki (JAK2) [µM]	Ki (Tyk2) [µM]	IC50 [1] [µM]	combined stool score endpoint as compared with vehicle treated animals ([2]; 1 and 10 mg/kg only (PO, BID))	Ki (JAK3) [µM]	Tall-1 (pIC50) ([1]; IL-2 stimulated pSTAT5, Tall-1 T cells)	JAK3 (pKi)-JAK1 (pKi) (JAK3; selectivity JAK3 over JAK1, difference of pKi)
CN(C)C/C=C/C(=O)N1CC(C)(COc2cc(-c3ccc(O)c(F)c3)cc3[nH]ncc23)C1 [Compound 3-11]	E (a pKi value of 7 or below (Ki of 100 nM or above))	D (a pKi value between 7 and 8 (Ki between 100 nM and 10 nM))	E (a pKi value of 7 or below (Ki of 100 nM or above))	B (a pIC50 value between 6.7 (included) and 7.5 (IC50 between 200 nM and 32 nM))	statistically significant decrease	A (a pKi value≥10 (Ki≤0.1 nM))	A (a value of 3 or above)								
CC(C)N(C)C/C=C/C(=O)N1CC(COc2cc(-c3ccc(O)cc3)cc3[nH]ncc23)C1 [Compound 3-113]							A (a value of 3 or above)	> 0.1	0.01 to 0.1	> 0.1	< 0.0316	statistically significant decrease	< 0.0001		
C=CC(=O)N1CC(C(C)(C)Oc2cc(-c3ccc(O)c(F)c3)nc3[nH]ncc23)C1 [Compound 3-81]	E (a pKi value of 7 or below (Ki of 100 nM or above))	E (a pKi value of 7 or below (Ki of 100 nM or above))	E (a pKi value of 7 or below (Ki of 100 nM or above))	A (a pIC50 value≥7.5 (IC50≤32 nM))	statistically significant decrease	A (a pKi value≥10 (Ki≤0.1 nM))	A (a value of 3 or above)								
C=CC(=O)N1CC2(CC(Oc3nc(-c4ccc(O)cc4)nc4[nH]ncc34)C2)C1 [Compound 15-3]	E (a pKi value of 7 or below (Ki of 100 nM or above))	E (a pKi value of 7 or below (Ki of 100 nM or above))	E (a pKi value of 7 or below (Ki of 100 nM or above))		statistically significant decrease	A (a pKi value≥10 (Ki≤0.1 nM))								A (a pIC50 value≥7.5 (IC50≤32 nM))	A (a value of 3 or above)
C=CC(=O)N1CC(C(C)(C)Oc2cc(-c3ccc(O)c(Cl)c3)nc3[nH]ncc23)C1 [Compound 3-80]	E (a pKi value of 7 or below (Ki of 100 nM or above))	E (a pKi value of 7 or below (Ki of 100 nM or above))	E (a pKi value of 7 or below (Ki of 100 nM or above))	B (a pIC50 value between 6.7 (included) and 7.5 (IC50 between 200 nM and 32 nM))	statistically significant decrease	A (a pKi value≥10 (Ki≤0.1 nM))	A (a value of 3 or above)								
C=CC(=O)N1CC(C)(COc2nc(-c3ccc(O)cc3)nc3[nH]ncc23)C1 [Compound 3-57]	E (a pKi value of 7 or below (Ki of 100 nM or above))	E (a pKi value of 7 or below (Ki of 100 nM or above))	E (a pKi value of 7 or below (Ki of 100 nM or above))	B (a pIC50 value between 6.7 (included) and 7.5 (IC50 between 200 nM and 32 nM))	statistically significant decrease	A (a pKi value≥10 (Ki≤0.1 nM))	A (a value of 3 or above)								
CN(C)C/C=C/C(=O)N1CC(C)(COc2nc(-c3ccc(O)cc3)cc3[nH]ncc23)C1 [Compound 3-55]	E (a pKi value of 7 or below (Ki of 100 nM or above))	E (a pKi value of 7 or below (Ki of 100 nM or above))	E (a pKi value of 7 or below (Ki of 100 nM or above))	B (a pIC50 value between 6.7 (included) and 7.5 (IC50 between 200 nM and 32 nM))	statistically significant decrease	A (a pKi value≥10 (Ki≤0.1 nM))	A (a value of 3 or above)								
COC1(COc2cc(-c3ccc(O)c(Cl)c3)cc3[nH]ncc23)CN(C(=O)/C=C/CN(C)C)C1 [Compound 3-72]					statistically significant decrease		A (a value of 3 or above)	> 0.1	> 0.1	> 0.1	< 0.0316		0.0001 to 0.001		
CN(C)C/C=C/C(=O)N1CC(COc2nc(-c3ccc(O)c(Cl)c3)cc3[nH]ncc23)C1 [Compound 3-34]	E (a pKi value of 7 or below (Ki of 100 nM or above))	E (a pKi value of 7 or below (Ki of 100 nM or above))	E (a pKi value of 7 or below (Ki of 100 nM or above))	B (a pIC50 value between 6.7 (included) and 7.5 (IC50 between 200 nM and 32 nM))	statistically significant decrease	A (a pKi value≥10 (Ki≤0.1 nM))	A (a value of 3 or above)								
